Measurements as given in PubChem BioAssay AID2060513 (Molecular Pharmacology Branch, DTP, NCI, 2025).

Tested on: 299254-011-R-J1-PDC complex spheroids viability
Assay: Anticancer human tumor 299254-011-R-J1-PDC patient-derived melanoma cell line growth inhibition [GQUAD]
Details: for IC50: curve of first compound; for viability, T/C: stronger effect = lower value
How it was run: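 Tumor cells were grown as complex spheroids with HUVEC endothelial cells and mesenchymal stem cells as stroma. G-quadruplex stabilizers were combined with targeted agents over half-log dilutions from near the clinical Cmax, or from 10 microM.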

[1] = second compound 0.0316 µM, first compound 0.0316 µM
[2] = second compound 0.0316 µM, first compound 0.1 µM
[3] = second compound 0.0316 µM, first compound 0.316 µM
[4] = second compound 0.0316 µM, first compound 1 µM
[5] = second compound 0.0316 µM, first compound 3.16 µM
[6] = second compound 0.0316 µM, first compound 10 µM
[7] = second compound 0.1 µM, first compound 0.0316 µM
[8] = second compound 0.1 µM, first compound 0.1 µM
[9] = second compound 0.1 µM, first compound 0.316 µM
[10] = second compound 0.1 µM, first compound 1 µM
[11] = second compound 0.1 µM, first compound 3.16 µM
[12] = second compound 0.1 µM, first compound 10 µM
[13] = second compound 0.316 µM, first compound 0.0316 µM
[14] = second compound 0.316 µM, first compound 0.1 µM
[15] = second compound 0.316 µM, first compound 0.316 µM
[16] = second compound 0.316 µM, first compound 1 µM
[17] = second compound 0.316 µM, first compound 3.16 µM
[18] = second compound 0.316 µM, first compound 10 µM
[19] = second compound 1 µM, first compound 0.0316 µM
[20] = second compound 1 µM, first compound 0.1 µM
[21] = second compound 1 µM, first compound 0.316 µM
[22] = second compound 1 µM, first compound 1 µM
[23] = second compound 1 µM, first compound 3.16 µM
[24] = second compound 1 µM, first compound 10 µM
[25] = second compound 3.16 µM, first compound 0.0316 µM
[26] = second compound 3.16 µM, first compound 0.1 µM
[27] = second compound 3.16 µM, first compound 0.316 µM
[28] = second compound 3.16 µM, first compound 1 µM
[29] = second compound 3.16 µM, first compound 3.16 µM
[30] = second compound 3.16 µM, first compound 10 µM
[31] = second compound 10 µM, first compound 0.0316 µM
[32] = second compound 10 µM, first compound 0.1 µM
[33] = second compound 10 µM, first compound 0.316 µM
[34] = second compound 10 µM, first compound 1 µM
[35] = second compound 10 µM, first compound 3.16 µM
[36] = second compound 10 µM, first compound 10 µM
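Also: spheroids exposed to the agents for seven days before readout.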
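For viability, T/C in this document: percent viability relative to DMSO vehicle control wells = 100%.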

For `CC(C)n1c(=O)n(C)c2cnc3cc(F)c(-c4ccc(OCCCN5CCCCC5)nc4)cc3c21` + Cc1cnc(CNC(=O)c2c(=O)c3ccc(N4CCCN(C)CC4)nc3n3c2sc2ccccc23)cn1, the IC50 (second compound 0.0316 µM) was > 10 µM, the IC50 (second compound 0.1 µM) was 7.38 µM and the IC50 (second compound 0.316 µM) was 2.38 µM. The IC50 (second compound 1 µM) was 4.09 µM, the IC50 (second compound 3.16 µM) was 1.36 µM and the IC50 (second compound 10 µM) was < 0.0316 µM. It also gave a viability, T/C [1] of 94.4%, a viability, T/C [2] of 79.1% and a viability, T/C [3] of 85.8%. The viability, T/C [4] was 73%, the viability, T/C [5] was 69.7% and the viability, T/C [6] was 51%. For the same molecule, the viability, T/C [7] was 96.9%, the viability, T/C [8] was 96.4% and the viability, T/C [9] was 77.3%. It also gave a viability, T/C [10] of 87.8%, a viability, T/C [11] of 63.1% and a viability, T/C [12] of 44.4%. The viability, T/C [13] was 77.4%, the viability, T/C [14] was 87.2% and the viability, T/C [15] was 65.2%. It also gave a viability, T/C [16] of 55.7%, a viability, T/C [17] of 53% and a viability, T/C [18] of 39.5%. For the same molecule, the viability, T/C [19] was 56.4%, the viability, T/C [20] was 56.6% and the viability, T/C [21] was 66.9%. It also gave a viability, T/C [22] of 54.7%, a viability, T/C [23] of 58.1% and a viability, T/C [24] of 22.4%. The viability, T/C [25] was 55.4%, the viability, T/C [26] was 78.3% and the viability, T/C [27] was 64%. The viability, T/C [28] was 53.5%, the viability, T/C [29] was 35.6% and the viability, T/C [30] was 13.6%. For the same molecule, the viability, T/C [31] was 0.37%, the viability, T/C [32] was 12.4% and the viability, T/C [33] was 12.2%. It also gave a viability, T/C [34] of 3.21%, a viability, T/C [35] of 0.36% and a viability, T/C [36] of 0.31%.
For `O=C(c1cc(Cc2n[nH]c(=O)c3ccccc23)ccc1F)N1CCN(C(=O)C2CC2)CC1` + Cc1[nH]c2ccc(F)cc2c1-c1nc2c3cccnc3c3ncccc3c2[nH]1, the IC50 (second compound 0.0316 µM) was > 10 µM, the IC50 (second compound 0.1 µM) was > 10 µM and the IC50 (second compound 0.316 µM) was > 10 µM. The IC50 (second compound 1 µM) was > 10 µM, the IC50 (second compound 3.16 µM) was > 10 µM and the IC50 (second compound 10 µM) was > 10 µM. For the same molecule, the viability, T/C [1] was 109%, the viability, T/C [2] was 102% and the viability, T/C [3] was 102%. It also gave a viability, T/C [4] of 102%, a viability, T/C [5] of 99% and a viability, T/C [6] of 91.1%. For the same molecule, the viability, T/C [7] was 95.1%, the viability, T/C [8] was 86.3% and the viability, T/C [9] was 97.1%. It also gave a viability, T/C [10] of 110%, a viability, T/C [11] of 113% and a viability, T/C [12] of 89.9%. For the same molecule, the viability, T/C [13] was 89.9%, the viability, T/C [14] was 109% and the viability, T/C [15] was 90.2%. The viability, T/C [16] was 95.1%, the viability, T/C [17] was 103% and the viability, T/C [18] was 104%. The viability, T/C [19] was 88.8%, the viability, T/C [20] was 125% and the viability, T/C [21] was 127%. For the same molecule, the viability, T/C [22] was 115%, the viability, T/C [23] was 90.4% and the viability, T/C [24] was 88.5%. The viability, T/C [25] was 91.3%, the viability, T/C [26] was 95.7% and the viability, T/C [27] was 93.2%. The viability, T/C [28] was 87.5%, the viability, T/C [29] was 104% and the viability, T/C [30] was 85%. For the same molecule, the viability, T/C [31] was 91.6%, the viability, T/C [32] was 97.2% and the viability, T/C [33] was 106%. The viability, T/C [34] was 104%, the viability, T/C [35] was 92.5% and the viability, T/C [36] was 93%.
